Laboratory results: publication PMC8233510 (Molecular Biology and Evolution, 2021)

What was measured:
Assay in all cases: […]-SAM radiochemical methyltransferase assay, Michaelis-Menten fit
Conditions in all cases: SAM 320 μM (saturating), 50 mM Tris-HCl, 24 °C
PcCS2 = assay type: biochemical, Paullinia cupana
TcAncCS2 = assay type: biochemical, synthetic construct
TcCS2 = assay type: biochemical, Theobroma cacao
TcAncCS1 = assay type: biochemical, synthetic construct
CsAncCS = assay type: biochemical, synthetic construct
PcAncCS1 = assay type: biochemical, synthetic construct
PcCS1 = assay type: biochemical, Paullinia cupana
TcCS1 = assay type: biochemical, Theobroma cacao

Km (CsAncCS)	SMILES	Km (PcCS2)	Km (TcAncCS2)	Km (TcCS2)	Km (TcAncCS1)	Km (PcAncCS1)	Km (PcCS1)	Km (TcCS1)
	Cn1c(=O)[nH]c(=O)c2[nH]cnc21 [3X, 3-methylxanthine]	677 µM	154 µM	49.1 µM	139 µM			
26.7 µM	Cn1cnc2[nH]c(=O)[nH]c(=O)c21 [7X, 7-methylxanthine]				34.6 µM			
	O=c1[nH]c(=O)c2[nH]cnc2[nH]1 [X, xanthine]		4.14 µM		53.4 µM	418 µM	95.4 µM	95.8 µM
